Measured values: patent US8952024B2, “Herbicidal pyrimidone derivatives” (E I du Pont de Nemours and Company, priority 2009, dated 2015)

Experiments:
Format in all cases: in vivo
[1] = system: winter barley (Hordeum vulgare); test: Test B postemergence plant response
Outline: (§1)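 Plants grown in peat/vermiculite medium were sprayed postemergence at 2–18 cm height (1- to 4-leaf stage). After 13–15 days in the greenhouse, response was rated visually against untreated controls on a 0–100 scale (0 no effect, 100 complete control).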

[2] = system: canarygrass (Phalaris minor); test: Test B postemergence plant response
Outline: as §1

[3] = system: chickweed (Stellaria media); test: Test B postemergence plant response
Outline: as §1

[4] = system: windgrass (Apera spica-venti); test: Test B postemergence plant response
Outline: as §1

[5] = system: nightshade (eastern black nightshade, Solanum ptycanthum); test: Test B pre-/postemergence plant response; conditions: Preemergence
Outline: (§2)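 Seeds were sown in loam soil/sand blend and treated preemergence with compound in non-phytotoxic solvent mixture containing surfactant; postemergence sprays, same formulation, went onto plants 2 to 18 cm (1- to 4-leaf stage) in peat-based planting medium. Greenhouse 13 to 15 days, then visual rating versus untreated controls, 0 (no effect) to 100 (complete control).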

[6] = system: ragweed (common ragweed, Ambrosia elatior); test: Test B pre-/postemergence plant response
Outline: as §2

[7] = system: galium (catchweed bedstraw, Galium aparine); test: Test B pre-/postemergence plant response; conditions: Preemergence
Outline: as §2

[8] = system: bermudagrass (Cynodon dactylon); test: Test B pre-/postemergence plant response
Outline: as §2

[9] = system: sunflower (common oilseed sunflower, Helianthus annuus); test: Test B pre-/postemergence plant response; conditions: Preemergence
Outline: as §2

[10] = system: lambsquarters (Chenopodium album); test: Test B pre-/postemergence plant response
Outline: as §2

[11] = system: pigweed (Amaranthus retroflexus); test: Test B pre-/postemergence plant response
Outline: as §2

[12] = system: wheat (Triticum aestivum); test: Test B pre-/postemergence plant response
Outline: as §2

[13] = system: Italian ryegrass (Lolium multiflorum); test: Test B pre-/postemergence plant response
Outline: as §2

[14] = 31 g ai/ha, postemergence, scale 0 to 100, 0 is no effect, 100 is complete control
[15] = Postemergence, 62 g ai/ha, scale 0 (no effect) to 100 (complete control), 13 to 15 days
[16] = Postemergence, 125 g ai/ha, visual rating after 13 to 15 days, scale 0 (no effect) to 100 (complete control)
[17] = Postemergence, 250 g ai/ha, scale 0 to 100 (0 no effect, 100 complete control)
[18] = 31 g ai/ha, scale 0 to 100 (0 no effect, 100 complete control)
[19] = 62 g ai/ha, scale 0 to 100, 0 no effect, 100 complete control
[20] = 125 g ai/ha, scale 0 to 100, 0 no effect, 100 complete control
[21] = 250 g ai/ha, Preemergence, 0 to 100 scale
[22] = Preemergence, 31 g ai/ha, scale 0 to 100 (0 no effect, 100 complete control)
[23] = Preemergence, 62 g ai/ha, scale 0 to 100, 0 no effect, 100 complete control
[24] = Preemergence, 125 g ai/ha, scale 0 to 100, 0 no effect, 100 complete control

Cc1ccc(Cl)cc1-n1c(-c2ccccc2)ncc(C(=O)C2=C(O)CCCC2=O)c1=O [Compound 52]
Plant response rating, Barley [1, 14]: 0 | Plant response rating, Barley [1, 15]: 0 | Plant response rating, Barley [1, 16]: 25 | Plant response rating, Barley [1, 17]: 25 | Plant response rating, Canarygrass [2, 14]: 0 | Plant response rating, Canarygrass [2, 15]: 50 | Plant response rating, Canarygrass [2, 16]: 65 | Plant response rating, Canarygrass [2, 17]: 85 | Plant response rating, Chickweed [3, 14]: 95 | Plant response rating, Chickweed [3, 15]: 95 | Plant response rating, Chickweed [3, 16]: 95 | Plant response rating, Chickweed [3, 17]: 98 | Plant response rating, Windgrass [4, 14]: 60 | Plant response rating, Windgrass [4, 15]: 80 | Plant response rating, Windgrass [4, 16]: 90 | Plant response rating, Windgrass [4, 17]: 100 | Plant response rating, Nightshade ([5]; 250 g ai/ha, 0 to 100 scale): 100 | Plant response rating, Nightshade [5, 18]: 90 | Plant response rating, Nightshade [5, 19]: 95 | Plant response rating, Nightshade [5, 20]: 98 | Plant response rating, Ragweed [6, 14]: 75 | Plant response rating, Ragweed [6, 21]: 95 | Plant response rating, Ragweed [6, 15]: 80 | Plant response rating, Ragweed [6, 16]: 80 | Plant response rating, Ragweed [6, 17]: 85 | Plant response rating, Ragweed [6, 22]: 80 | Plant response rating, Ragweed [6, 23]: 80 | Plant response rating, Ragweed [6, 24]: 85 | Plant response rating, Galium ([7]; 250 g ai/ha, 0 to 100 scale): 95 | Plant response rating, Galium [7, 18]: 0 | Plant response rating, Galium [7, 19]: 0 | Plant response rating, Galium [7, 20]: 70 | Plant response rating, Bermudagrass [8, 14]: 85 | Plant response rating, Bermudagrass [8, 21]: 100 | Plant response rating, Bermudagrass [8, 15]: 95 | Plant response rating, Bermudagrass [8, 16]: 95 | Plant response rating, Bermudagrass [8, 17]: 100 | Plant response rating, Bermudagrass [8, 22]: 98 | Plant response rating, Bermudagrass [8, 23]: 98 | Plant response rating, Bermudagrass [8, 24]: 98 | Plant response rating, Sunflower ([9]; 250 g ai/ha, 0 to 100 scale): 75 | Plant response rating, Sunflower [9, 18]: 10 | Plant response rating, Sunflower [9, 19]: 10 | Plant response rating, Sunflower [9, 20]: 70 | Plant response rating, Lambsquarters [10, 14]: 85 | Plant response rating, Lambsquarters [10, 21]: 100 | Plant response rating, Lambsquarters [10, 15]: 85 | Plant response rating, Lambsquarters [10, 16]: 90 | Plant response rating, Lambsquarters [10, 17]: 95 | Plant response rating, Lambsquarters [10, 22]: 98 | Plant response rating, Lambsquarters [10, 23]: 100 | Plant response rating, Lambsquarters [10, 24]: 100 | Plant response rating, Pigweed [11, 14]: 85 | Plant response rating, Pigweed [11, 21]: 100 | Plant response rating, Pigweed [11, 15]: 90 | Plant response rating, Pigweed [11, 16]: 95 | Plant response rating, Pigweed [11, 17]: 98 | Plant response rating, Pigweed [11, 22]: 90 | Plant response rating, Pigweed [11, 23]: 100 | Plant response rating, Pigweed [11, 24]: 100 | Plant response rating, Wheat [12, 14]: 15 | Plant response rating, Wheat [12, 21]: 0 | Plant response rating, Wheat [12, 15]: 25 | Plant response rating, Wheat [12, 16]: 35 | Plant response rating, Wheat [12, 17]: 35 | Plant response rating, Wheat [12, 22]: 0 | Plant response rating, Wheat [12, 23]: 0 | Plant response rating, Wheat [12, 24]: 0 | Plant response rating, Ryegrass, Italian [13, 14]: 40 | Plant response rating, Ryegrass, Italian [13, 21]: 0 | Plant response rating, Ryegrass, Italian [13, 15]: 45 | Plant response rating, Ryegrass, Italian [13, 16]: 55 | Plant response rating, Ryegrass, Italian [13, 17]: 60 | Plant response rating, Ryegrass, Italian [13, 22]: 0 | Plant response rating, Ryegrass, Italian [13, 23]: 0 | Plant response rating, Ryegrass, Italian [13, 24]: 0
